Measured values taken from US9956293B2, “Targeted therapeutics” (Madrigal Pharmaceuticals, Inc., priority 2014, dated 2018).

Test system: HER2
Experiment: HER2 degradation assay with BT-474 cell line (Example 12, FACS)
Type: cell-based
Details: Homo sapiens, BT-474; SDC-TRAPs of the 52nd table

| IC50 [nM] | SMILES |
| --- | --- |
| > 5000 | CCNC(=O)c1nnc(-c2cc(C(C)C)c(O)cc2O)n1-c1ccc(Oc2ccc(C(=O)NC(Cc3ccccc3)C(=O)Nc3cc(-c4cnoc4-c4cc(OC)c(OC)c(OC)c4)ccc3OC)cc2)cc1 (stereo not drawn) [SDC-TRAP-0158, 5-(2,4-dihydroxy-5-isopropylphenyl)-N-ethyl-4-(4-(4-((1-((2-methoxy-5-(5-(3,4,5-trimethoxyphenyl)isoxazol-4-yl)phenyl)amino)-1-oxo-3-phenylpropan-2-yl)carbamoyl)phenoxy)phenyl)-4H-1,2,4-triazole-3-carboxamide] |

Same assay, conditions: Homo sapiens; BT-474 cells

| IC50 [nM] | SMILES |
| --- | --- |
| 239 | CC(C)c1cc(-c2nnc(O)n2-c2ccc(CN3CCN(C(=O)c4cnc(C(=O)Nc5cccc6c5CN(C5CCC(=O)NC5=O)C6=O)cn4)CC3)c(F)c2)c(O)cc1O (stereo not drawn) [SDC-TRAP-0160, 5-(4-(4-(3-(2,4-dihydroxy-5-isopropylphenyl)-5-hydroxy-4H-1,2,4-triazol-4-yl)-2-fluorobenzyl)piperazine-1-carbonyl)-N-(2-(2,6-dioxopiperidin-3-yl)-1-oxoisoindolin-4-yl)pyrazine-2-carboxamide] |
| 885 | CCNC(=O)c1nnc(-c2cc(C(C)C)c(O)cc2O)n1-c1ccc(CN2CCC(C(=O)N[C@H](C(=O)Nc3cccc4c3CN(C3CCC(=O)NC3=O)C4=O)C(C)C)CC2)cc1 (stereo partly drawn) [SDC-TRAP-0163, 1-(4-(3-(2,4-dihydroxy-5-isopropylphenyl)-5-(ethylcarbamoyl)-4H-1,2,4-triazol-4-yl)benzyl)-N-((2S)-1-((2-(2,6-dioxopiperidin-3-yl)-1-oxoisoindolin-4-yl)amino)-3-methyl-1-oxobutan-2-yl)piperidine-4-carboxamide] |
| 493 | CCNC(=O)c1nnc(-c2cc(C(C)C)c(O)cc2O)n1-c1ccc(CN2CCC(C(=O)N3CCC[C@H]3C(=O)Nc3cccc4c3CN(C3CCC(=O)NC3=O)C4=O)CC2)cc1 (stereo partly drawn) [SDC-TRAP-0164, 5-(2,4-dihydroxy-5-isopropylphenyl)-4-(4-((4-((2S)-2-((2-(2,6-dioxopiperidin-3-yl)-1-oxoisoindolin-4-yl)carbamoyl)pyrrolidine-1-carbonyl)piperidin-1-yl)methyl)phenyl)-N-ethyl-4H-1,2,4-triazole-3-carboxamide] |
| > 5000 | CCNC(=O)c1nnc(-c2cc(C(C)C)c(O)cc2O)n1-c1ccc(C(=O)N[C@@H](C)C(=O)Nc2cccc3c2CN(C2CCC(=O)NC2=O)C3=O)cc1 (stereo partly drawn) [SDC-TRAP-0166, 5-(2,4-dihydroxy-5-isopropylphenyl)-4-(4-(((2S)-1-((2-(2,6-dioxopiperidin-3-yl)-1-oxoisoindolin-4-yl)amino)-1-oxopropan-2-yl)carbamoyl)phenyl)-N-ethyl-4H-1,2,4-triazole-3-carboxamide] |
| 296 | CC(C)c1cc(-c2nnc(O)n2-c2ccc(CN3CCN(c4cnc(C(=O)Nc5cccc6c5CN(C5CCC(=O)NC5=O)C6=O)cn4)CC3)c(F)c2)c(O)cc1O (stereo not drawn) [SDC-TRAP-0170, 5-(4-(4-(3-(2,4-dihydroxy-5-isopropylphenyl)-5-hydroxy-4H-1,2,4-triazol-4-yl)-2-fluorobenzyl)piperazin-1-yl)-N-(2-(2,6-dioxopiperidin-3-yl)-1-oxoisoindolin-4-yl)pyrazine-2-carboxamide] |
| 693 | CC(C)c1cc(-c2nnc(O)n2-c2ccc(CN3CCN(C(=O)c4ccc(COC(=O)Nc5cccc6c5CN(C5CCC(=O)NC5=O)C6=O)cc4F)CC3)c(F)c2)c(O)cc1O (stereo not drawn) [SDC-TRAP-0174, 4-(4-(4-(3-(2,4-dihydroxy-5-isopropylphenyl)-5-hydroxy-4H-1,2,4-triazol-4-yl)-2-fluorobenzyl)piperazine-1-carbonyl)-3-fluorobenzyl (2-(2,6-dioxopiperidin-3-yl)-1-oxoisoindolin-4-yl)carbamate] |
| 2630 | CC(C)c1cc(-c2nnc(O)n2-c2ccc(N3CCN(C(=O)c4ccc(COC(=O)Nc5cccc6c5CN(C5CCC(=O)NC5=O)C6=O)cc4)CC3)nc2)c(O)cc1O (stereo not drawn) [SDC-TRAP-0175, 4-(4-(5-(3-(2,4-dihydroxy-5-isopropylphenyl)-5-hydroxy-4H-1,2,4-triazol-4-yl)pyridin-2-yl)piperazine-1-carbonyl)benzyl (2-(2,6-dioxopiperidin-3-yl)-1-oxoisoindolin-4-yl)carbamate] |
| 4350 | CCNC(=O)c1nnc(-c2cc(C(C)C)c(O)cc2O)n1-c1ccc(C(=O)N2CCN(C(=O)c3ccc(COC(=O)Nc4cccc5c4CN(C4CCC(=O)NC4=O)C5=O)cc3)CC2)cc1 (stereo not drawn) [SDC-TRAP-0177, 4-(4-(4-(3-(2,4-dihydroxy-5-isopropylphenyl)-5-(ethylcarbamoyl)-4H-1,2,4-triazol-4-yl)benzoyl)piperazine-1-carbonyl)benzyl (2-(2,6-dioxopiperidin-3-yl)-1-oxoisoindolin-4-yl)carbamate] |
| 3950 | CCNC(=O)c1nnc(-c2cc(C(C)C)c(O)cc2O)n1-c1ccc(C(=O)N[C@H](C(=O)Nc2cccc3c2CN(C2CCC(=O)NC2=O)C3=O)C(C)C)cc1 (stereo partly drawn) [SDC-TRAP-0188, 5-(2,4-dihydroxy-5-isopropylphenyl)-4-(4-(((2S)-1-((2-(2,6-dioxopiperidin-3-yl)-1-oxoisoindolin-4-yl)amino)-3-methyl-1-oxobutan-2-yl)carbamoyl)phenyl)-N-ethyl-4H-1,2,4-triazole-3-carboxamide] |
| 1090 | CCNC(=O)c1nnc(-c2cc(C(C)C)c(O)cc2O)n1-c1ccc(C(=O)N[C@@H](CC(C)C)C(=O)Nc2cccc3c2CN(C2CCC(=O)NC2=O)C3=O)cc1 (stereo partly drawn) [SDC-TRAP-0189, 5-(2,4-dihydroxy-5-isopropylphenyl)-4-(4-(((2S)-1-((2-(2,6-dioxopiperidin-3-yl)-1-oxoisoindolin-4-yl)amino)-4-methyl-1-oxopentan-2-yl)carbamoyl)phenyl)-N-ethyl-4H-1,2,4-triazole-3-carboxamide] |
| > 5000 | CCNC(=O)c1nnc(-c2cc(C(C)C)c(O)cc2O)n1-c1ccc(C(=O)N2CCC[C@H]2C(=O)Nc2cccc3c2CN(C2CCC(=O)NC2=O)C3=O)cc1 (stereo partly drawn) [SDC-TRAP-0190, 5-(2,4-dihydroxy-5-isopropylphenyl)-4-(4-((2S)-2-((2-(2,6-dioxopiperidin-3-yl)-1-oxoisoindolin-4-yl)carbamoyl)pyrrolidine-1-carbonyl)phenyl)-N-ethyl-4H-1,2,4-triazole-3-carboxamide] |
| 1180 | CCNC(=O)c1nnc(-c2cc(C(C)C)c(O)cc2O)n1-c1ccc(Oc2ccc(C(=O)N[C@@H](CC(C)C)C(=O)Nc3cccc4c3CN(C3CCC(=O)NC3=O)C4=O)cc2)cc1 (stereo partly drawn) [SDC-TRAP-0191, 5-(2,4-dihydroxy-5-isopropylphenyl)-4-(4-(4-(((2S)-1-((2-(2,6-dioxopiperidin-3-yl)-1-oxoisoindolin-4-yl)amino)-4-methyl-1-oxopentan-2-yl)carbamoyl)phenoxy)phenyl)-N-ethyl-4H-1,2,4-triazole-3-carboxamide] |
| > 5000 | CCNC(=O)c1nnc(-c2cc(C(C)C)c(O)cc2O)n1-c1ccc(Oc2ccc(C(=O)N3CCC[C@H]3C(=O)Nc3cccc4c3CN(C3CCC(=O)NC3=O)C4=O)cc2)cc1 (stereo partly drawn) [SDC-TRAP-0192, 5-(2,4-dihydroxy-5-isopropylphenyl)-4-(4-(4-((2S)-2-((2-(2,6-dioxopiperidin-3-yl)-1-oxoisoindolin-4-yl)carbamoyl)pyrrolidine-1-carbonyl)phenoxy)phenyl)-N-ethyl-4H-1,2,4-triazole-3-carboxamide] |
| 266 | CCNC(=O)c1nnc(-c2cc(C(C)C)c(O)cc2O)n1-c1ccc(CN2CCC(C(=O)N[C@@H](CC(C)C)C(=O)Nc3cccc4c3CN(C3CCC(=O)NC3=O)C4=O)CC2)cc1 (stereo partly drawn) [SDC-TRAP-0193, 1-(4-(3-(2,4-dihydroxy-5-isopropylphenyl)-5-(ethylcarbamoyl)-4H-1,2,4-triazol-4-yl)benzyl)-N-((2S)-1-((2-(2,6-dioxopiperidin-3-yl)-1-oxoisoindolin-4-yl)amino)-4-methyl-1-oxopentan-2-yl)piperidine-4-carboxamide] |
| 2120 | CC(C)c1cc(-c2nnc(O)n2-c2ccc(CN3CCN(C(=O)Cc4ccc(COC(=O)Nc5cccc6c5CN(C5CCC(=O)NC5=O)C6=O)cc4)CC3)c(F)c2)c(O)cc1O (stereo not drawn) [SDC-TRAP-0194, 4-(2-(4-(4-(3-(2,4-dihydroxy-5-isopropylphenyl)-5-hydroxy-4H-1,2,4-triazol-4-yl)-2-fluorobenzyl)piperazin-1-yl)-2-oxoethyl)benzyl (2-(2,6-dioxopiperidin-3-yl)-1-oxoisoindolin-4-yl)carbamate] |
| 696 | CCNC(=O)c1nnc(-c2cc(C(C)C)c(O)cc2O)n1-c1ccc(CN2CCC(C(=O)N(C)CCCOC(=O)Nc3cccc4c3CN(C3CCC(=O)NC3=O)C4=O)CC2)cc1 (stereo not drawn) [SDC-TRAP-0231, 3-(1-(4-(3-(2,4-dihydroxy-5-isopropylphenyl)-5-(ethylcarbamoyl)-4H-1,2,4-triazol-4-yl)benzyl)-N-methylpiperidine-4-carboxamido)propyl (2-(2,6-dioxopiperidin-3-yl)-1-oxoisoindolin-4-yl)carbamate] |

Test system: not listed separately
Experiment: Tissue distribution of SDC-TRAPs in tumor-bearing mice: plasma, tumor, heart (Examples 14-15)
Details: mouse, in vivo

| SMILES | Kp at 6 h | Kp at 12 h | Kp at […] | concentration at 6 h [nM] | concentration at 12 h [nM] | concentration at 24 h [nM] | Kp at 24 h |
| --- | --- | --- | --- | --- | --- | --- | --- |
| CCc1c2c(nc3ccc(OC(=O)N4CCN(c5ccc(-n6c(O)nnc6-c6cc(C(C)C)c(O)cc6O)cc5)CC4)cc13)-c1cc3c(c(=O)n1C2)COC(=O)C3(O)CC (stereo not drawn) [SDC-TRAP-0045, 4,11-diethyl-4-hydroxy-3,14-dioxo-3,4,12,14-tetrahydro-1H-pyrano[3′,4′:6,7]indolizino[1,2-b]quinolin-9-yl 4-(4-(3-(2,4-dihydroxy-5-isopropylphenyl)-5-hydroxy-4H-1,2,4-triazol-4-yl)phenyl)piperazine-1-carboxylate] | 1.35 | 8.02 | 0.00624 | 1880 | 141 | 11.3 | – |
| CCc1c2c(nc3ccc(OC(=O)N4CCN(Cc5ccc(-n6c(O)nnc6-c6cc(C(C)C)c(O)cc6O)cc5)CC4)cc13)-c1cc3c(c(=O)n1C2)COC(=O)C3(O)CC (stereo not drawn) [SDC-TRAP-0046, 4,11-diethyl-4-hydroxy-3,14-dioxo-3,4,12,14-tetrahydro-1H-pyrano[3′,4′:6,7]indolizino[1,2-b]quinolin-9-yl 4-(4-(3-(2,4-dihydroxy-5-isopropylphenyl)-5-hydroxy-4H-1,2,4-triazol-4-yl)benzyl)piperazine-1-carboxylate] | 0.844 | 2.2 | 0.0193 | 5880 | 2370 | 54.2 | 40.3 |
